Reference: US6709818B1, “Methods of diagnosing and treating hepatic cell proliferative disorders” (The Johns Hopkins University School of Medicine, priority 1999, dated 2004)
“Also recorded” adds a separate entry of the source.

How the values were obtained:
[1] = test system: GSTP1 expression in Tsu-Prl PCA cells; experiment: GSTP1 expression in Tsu-Prl PCA cells treated with 5-aza-dC; type: cell-based, human; settings: Tsu-Prl PCA cells (unmethylated GSTP1 promoter alleles), treated as for Hep3B
From the text: Assessment of GSTP1 expression.

GSTP1 promoter alleles = experiment: Southern blot analysis of GSTP1 "CpG island" DNA hypermethylation in Hep3B cells treated with 5-aza-dC; type: cell-based, human; settings: Hep3B HCC cells treated in vitro, 72 hours
Protocol: DNA isolated from Hep3B cells before and after exposure to 5-aza-dC in vitro was assessed for GSTP1 “CpG island” DNA hypermethylation using Southern blot analysis. Purified DNAs were digested first with HindIII and EcoRI and then extensively with the ^5-mC-sensitive restriction endonuclease BssHII. Digested DNAs were then electrophoresed on agarose gels, transferred to Zeta-Probe (DioRad) membranes, and then hybridized with ^32P-labeled GSTP1 cDNA DNA isolated from Hep3B HCC cells and from HCC and adjacent non-neoplastic tissues was also subjected to analysis for GSTP1 “CpG island” DNA hypermethylation using a ^5-mC-sensitive restriction endonuclease-polymerase chain reaction (PCR) strategy that permitted both detection of CpG dinucleotide methylation and simultaneous discrimination of maternal and paternal alleles in informative cases. […] To facilitate detection of the PCR amplification products, the downstream primer was end-labeled with [γ-^32P]ATP (Amersham) using T4 polynucleotide kinase (New England BioLabs). PCR was conducted by incubation at 95° C. for 1 min, 63° C. for 3 min, and 72° C. for 1.5 min, for 30 cycles followed by a final extension at 72° C. for 8 min. […]

[2] = test system: GSTP1 mRNA expression in Hep3B HCC cells; experiment: Northern blot analysis of GSTP1 mRNA expression by Hep3B cells treated with 5-aza-dC; settings: for GSTP1 mRNA expression (Northern blot): Hep3B HCC cells treated in vitro, 72 hours

Nc1ncn([C@H]2C[C@H](O)[C@@H](CO)O2)c(=O)n1 [5-aza-dC, 5-aza-deoxycytidine]
modulation of GSTP1 expression [1]: no modulation of GSTP1 expression was evident | GSTP1 "CpG island" / promoter allele methylation (Southern blot, BssHII digestion) (GSTP1 promoter alleles): appearance of unmethylated GSTP1 promoter alleles | GSTP1 "CpG island" / promoter allele methylation (Southern blot, BssHII digestion) (GSTP1 promoter alleles; listed as 5-aza-deoxycytidine): reversed GSTP1 “CpG island” hypermethylation | time at which GSTP1 mRNA expression began to appear ([2]; Hep3B HCC cells exposed for as long as 72 hours): ≤ 24 h | GSTP1 mRNA expression (Northern blot) [2]: reactivation of GSTP1 mRNA expression; also recorded: appearance of detectable GSTP1 mRNA | GSTP1 mRNA expression (Northern blot) ([2]; listed as 5-aza-deoxycytidine): restored GSTP1 expression
